According to patent US11331304B2, “YAP1 inhibitors and methods” (The Jackson Laboratory, priority 2016, dated 2022):
“Also recorded” adds a separate entry of the source.

Legend:
[1] = tested on: mouse medulloblastoma cells; assay: IC50 / viability (Cell Titer Blue) in mouse medulloblastoma tumorsphere cell line; type: cell-based; conditions: FIGS. 9-11
Method: Uptake was calculated by measuring relative fluorescence in two different primary medulloblastoma cell lines. Absorbance measurements were normalized to t=0 with drugs in the well, the drugs were washed out 30 minutes later, and absorbance was measured again. FIG. 9B) IC50 in a mouse medulloblastoma tumorsphere cell line treated with verteporfin or a verteporfin derivative compound (T10, T11, T13, T14, or T15). DMSO was used as a control.
(§1) Primary cells from spontaneous mouse medulloblastoma ([…];p53^−/− or FSMO;GFAPcre) and MED311 PDX model were isolated and cultured in serum-free stem cell medium (DMEM/F12, B27, pen/strep, bFGF9 10 nanograms per milliliter (ng/mL)), and EGF (20 ng/mL). Number of self-renewing stem cells in vitro were measured by plating single cells at a clonal density (<1 cell/μL) and counting spheres >100 μM 7 days later. To establish IC50 values, 3000 mouse medulloblastoma cells were plated in 96 wells and treated varying concentrations of verteporfin and new derivatives were synthesized, in triplicate, and viability was measured using Cell Titer Blue assay (Promega, Madison, Wis.) 3 days after drug treatment.

[2] = Solubility of verteporfin derivative compounds in water and buffer (pH = 2); type: physicochemical
[3] = tested on: Smo-M2;GFAP-cre medulloblastoma tumor slices; assay: Tumor slice culture ex vivo, tissue viability by Cell Titer Blue; type: cell-based, mouse
Method: Fresh tumor tissues were dissected and cut into 250 micrometer (μm) thick slices and cultured at air-media interface in serum-free medium (DMEM/F12, B27, pen/strep) for 8-12 days. Tissue viability was measured by Cell Titer Blue assay (Promega, Madison, Wis.) at 2-4 days intervals. DMSO or drugs were added after each viability reading.

[4] = tested on: MED311 human patient-derived xenograft (PDX) SHH medulloblastoma cells; assay: VP treatment of primary cells from SHH subgroup PDX model; type: cell-based
Method: (§2) To test YAP function in human cells, primary cells from a SHH subgroup PDX model (MED311) were isolated and treated with VP.
as §1

[5] = molecular target: YAP:TEAD (Homo sapiens, UniProt P46937); conditions: Liu-Chittenden et al. 2012; cited from earlier work
[6] = tested on: Ptch;p53 and Smo-M2;GFAP-cre medulloblastoma cells; assay: Self-renewal (sphere formation at clonal density) of SHH medulloblastoma tumorspheres; type: cell-based, mouse; conditions: for suppression of self-renewal: Ptch;p53 and Smo-M2;GFAP-cre cells in vitro, n=3; for self-renewal (in words): in vitro
Method: as §2, §1

[7] = tested on: SMO-M2;GFAP-cre mice; assay: Kaplan-Meier survival of SMO-M2;GFAP-cre mice, intraperitoneal injection; type: in vivo, mouse; conditions: IP injection, versus vehicle (DMSO), N=8 each group

Sequence of YAP:TEAD (P46937 whole entry): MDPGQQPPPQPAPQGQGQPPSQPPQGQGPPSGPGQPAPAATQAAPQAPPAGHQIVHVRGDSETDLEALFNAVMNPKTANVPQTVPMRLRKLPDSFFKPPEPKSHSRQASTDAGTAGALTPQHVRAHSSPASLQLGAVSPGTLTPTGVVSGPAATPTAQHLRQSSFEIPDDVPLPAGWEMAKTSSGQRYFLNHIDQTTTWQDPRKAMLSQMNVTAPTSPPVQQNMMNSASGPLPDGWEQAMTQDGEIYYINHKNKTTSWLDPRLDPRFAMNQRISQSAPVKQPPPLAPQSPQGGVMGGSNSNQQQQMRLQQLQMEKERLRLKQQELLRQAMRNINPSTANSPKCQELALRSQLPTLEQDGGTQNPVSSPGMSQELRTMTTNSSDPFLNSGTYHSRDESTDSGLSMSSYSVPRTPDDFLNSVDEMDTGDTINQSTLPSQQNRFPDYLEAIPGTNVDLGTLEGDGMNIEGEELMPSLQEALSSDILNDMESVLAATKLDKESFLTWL

Row | solubility compared to VP [2] | SMILES | activity / potency compared to VP [1] | response of tumor tissue explants grown as intact slices [3] | cell morphology ([4]; 24 hours post-VP treatment, listed as VP) | proliferation ([4]; upon VP treatment) | YAP:TEAD binding [5] | suppression of self-renewal ([6]; 0.1 μM) [%] | self-renewal (in words) ([6]; 100 nM) | self-renewal (in words) ([6]; 1 μM) | suppression of self-renewal [6] [%] | survival [7] | solubility (in words) [2] | Buffer (pH = 2) result ([2]; phosphate buffer pH = 2) | Water result ([2]; water, at the amount per volume in mg/mL)
1 | decreased solubility | C=Cc1c(C)c2cc3nc(cc4[nH]c(cc5nc(cc1[nH]2)C(C)=C5CCC(=O)OCCOCCOCCOC)c(CCC(=O)OCCOCCOCCOC)c4C)[C@@]1(C)C3=CC=C(C(=O)OC)[C@H]1C(=O)OC [Compound T9, 2-[2-(2-methoxyethoxy)ethoxy]ethyl 3-[(23 S,24R)-14-ethenyl-5-[3-[2-[2-(2-methoxyethoxy)ethoxy]ethoxy]-3-oxo-propyl]-22,23-bis(methoxycarbonyl)-4,10,15,24-tetramethyl-25,26,27,28-tetraazahexacyclo[16.6.1.13,6.18,11.113,16.019,24]octacosa-1,3,5,7,9,11(27),12,14,16,18(25), 19,21-dodecaen-9-yl]propanoate] | decreased solubility and activity | – | – | – | – | – | – | – | – | – | – | – | –
2 | more soluble | C=Cc1c(C)c2cc3nc(cc4[nH]c(cc5nc(cc1[nH]2)C(C)=C5CCC(=O)NCCN(C)C)c(CCC(=O)NCCN(C)C)c4C)[C@@]1(C)C3=CC=C(C(=O)OC)[C@H]1C(=O)OC [Compound T13, N-[2-(dimethylamino)ethyl]-3-[(23 S,24R)-14-ethenyl-5-[3-[2-(dimethylamino)ethylamino]-3-oxo-propyl]-22,23-bis(methoxycarbonyl)-4,10,15,24-tetramethyl-25,26,27,28-tetraazahexacyclo[16.6.1.13,6.18,11.113,16.019,24]octacosa-1,3,5,7,9,11(27), 12,14,16,18(25), 19,21-dodecaen-9-yl]propanamide] | more soluble and potent than VP | – | – | – | – | – | – | – | – | – | – | – | –
3 | – | C=Cc1c(C)c2cc3nc(cc4[nH]c(cc5nc(cc1[nH]2)C(C)=C5CCC(=O)O)c(CCC(=O)OC)c4C)[C@@]1(C)C3=CC=C(C(=O)OC)[C@H]1C(=O)OC [Verteporfin, 3-[(23 S,24R)-14-ethenyl-5-(3-methoxy-3-oxopropyl)-22,23-bis(methoxycarbonyl)-4,10,15,24-tetramethyl-25,26,27,28-tetraazahexacyclo[16.6.1.13,6.18,11.113,16.019,24]octacosa-1,3,5,7,9,11(27),12,14,16,18(25), 19,21-dodecaen-9-yl]propanoic acid] | – | significant response | significant morphology change; also recorded: morphological changes consistent with apoptosis | reduced proliferation | inhibit YAP:TEAD binding | ~50 | suppressed self-renewal | completely suppressed self-renewal | 100 | increase survival | poor solubility | insoluble | insoluble
